Experimental data: PubChem BioAssay (NCI)
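Where inhibition never reached the appropriate level, the endpoint shown equals the highest concentration tested. Otherwise, values were interpolated linearly from a five-concentration, 48-hour dose response in 96-well plates. TGI marks complete inhibition of growth.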

Experiments:
Experiment in all cases: NCI tumour cell line growth inhibition, 48 h
[1] = system: CAKI-1 renal
[2] = system: NCI-H522 lung
[3] = system: SR leukemia
[4] = system: A498 renal
[5] = system: DMS 273 small cell lung
[6] = system: KM12 colon
[7] = system: DLD-1 colon
[8] = system: SNB-75 CNS
[9] = system: SNB-19 CNS
[10] = system: NCI-H226 lung
[11] = system: A549 NSCLC
[12] = system: SK-MEL-28 melanoma
[13] = system: CCRF-CEM leukemia
[14] = system: HCC-2998 colon
[15] = system: HCT-116 colon
[16] = system: ACHN renal
[17] = system: 786-0 renal
[18] = system: OVCAR-3 ovarian
[19] = system: MOLT-4 leukemia
[20] = system: HL-60(TB) leukemia
[21] = system: SF-539 CNS
[22] = system: OVCAR-4 ovarian
[23] = system: NCI-H23 lung
[24] = system: RPMI-8226 leukemia
[25] = system: EKVX NSCLC
[26] = system: COLO 205 colon
[27] = system: XF 498 CNS
[28] = system: HCT-15 colon
[29] = system: DMS 114 small cell lung
[30] = system: HOP-18 NSCLC
[31] = system: K-562 leukemia
[32] = system: KM20L2 colon
[33] = system: U251 CNS
[34] = system: TK-10 renal
[35] = system: M14 melanoma
[36] = system: SK-MEL-5 melanoma
[37] = system: HT29 colon
[38] = system: SK-MEL-2 melanoma
[39] = system: IGROV1 ovarian
[40] = system: M19-MEL melanoma
[41] = system: LXFL 529 NSCLC
[42] = system: SF-268 CNS
[43] = system: RXF 393 renal
[44] = system: UO-31 renal
[45] = system: OVCAR-8 ovarian
[46] = system: SF-295 CNS
[47] = system: SK-OV-3 ovarian
[48] = system: SW-620 colon
[49] = system: SN12C renal
[50] = system: MALME-3M melanoma
[51] = system: HOP-92 NSCLC
[52] = system: NCI-H460 lung
[53] = system: UACC-257 melanoma
[54] = system: SNB-78 CNS

`CC[C@@]12N=C(N(C)C)C[C@]1(O)ON=C2C` was tested, and the TGI [1] was over 100 µM, the TGI [2] was over 100 µM and the TGI [3] was over 100 µM. For the same molecule, the TGI [4] was over 100 µM, the TGI [5] was over 100 µM and the TGI [6] was over 100 µM. It also gave a TGI [7] of over 100 µM, a TGI [8] of over 100 µM and a TGI [9] of over 100 µM. The TGI [10] was over 100 µM, the TGI [11] was over 100 µM and the TGI [12] was over 100 µM. The TGI [13] was over 100 µM, the TGI [14] was over 100 µM and the TGI [15] was over 100 µM. It also gave a TGI [16] of over 100 µM, a TGI [17] of over 100 µM and a TGI [18] of over 100 µM. The TGI [19] was over 100 µM, the TGI [20] was over 100 µM and the TGI [21] was over 100 µM. The TGI [22] was over 100 µM, the TGI [23] was over 100 µM and the TGI [24] was over 100 µM. For the same molecule, the TGI [25] was over 100 µM, the TGI [26] was over 100 µM and the TGI [27] was over 100 µM. The TGI [28] was over 100 µM, the TGI [29] was over 100 µM and the TGI [30] was over 100 µM. The TGI [31] was over 100 µM, the TGI [32] was over 100 µM and the TGI [33] was over 100 µM. It also gave a TGI [34] of over 100 µM, a TGI [35] of over 100 µM and a TGI [36] of over 100 µM. For the same molecule, the TGI [37] was over 100 µM, the TGI [38] was over 100 µM and the TGI [39] was over 100 µM. The TGI [40] was over 100 µM, the TGI [41] was over 100 µM and the TGI [42] was over 100 µM. It also gave a TGI [43] of over 100 µM, a TGI [44] of over 100 µM and a TGI [45] of over 100 µM. For the same molecule, the TGI [46] was over 100 µM, the TGI [47] was over 100 µM and the TGI [48] was over 100 µM. It also gave a TGI [49] of over 100 µM, a TGI [50] of over 100 µM and a TGI [51] of over 100 µM. For the same molecule, the TGI [52] was over 100 µM.

Work on `O=S(Cc1ccccn1)c1nc2ccccc2nc1-c1ccccc1` (centres undefined) yielded a TGI [5] of over 100 µM, a TGI [8] of 79.6 µM and a TGI [9] of over 100 µM. It also gave a TGI [10] of 76.2 µM, a TGI [11] of over 100 µM and a TGI [12] of over 100 µM. It also gave a TGI [13] of over 100 µM, a TGI [15] of over 100 µM and a TGI [16] of over 100 µM. For the same molecule, the TGI [53] was 82 µM, the TGI [17] was over 100 µM and the TGI [18] was over 100 µM. It also gave a TGI [19] of over 100 µM, a TGI [54] of 94 µM and a TGI [20] of 80.7 µM. It also gave a TGI [22] of over 100 µM, a TGI [23] of over 100 µM and a TGI [24] of 91.3 µM. For the same molecule, the TGI [25] was 73.7 µM, the TGI [26] was 32.8 µM and the TGI [27] was 47.3 µM. For the same molecule, the TGI [29] was 69.6 µM, the TGI [30] was over 100 µM and the TGI [31] was over 100 µM. It also gave a TGI [33] of over 100 µM, a TGI [35] of over 100 µM and a TGI [37] of over 100 µM. For the same molecule, the TGI [39] was 73.3 µM, the TGI [41] was over 100 µM and the TGI [42] was over 100 µM. The TGI [44] was 90.4 µM, the TGI [45] was over 100 µM and the TGI [46] was over 100 µM. The TGI [47] was over 100 µM, the TGI [49] was over 100 µM and the TGI [50] was 97.7 µM. The TGI [51] was 83.3 µM.
